Among the data in ChEMBL document CHEMBL3991601, “The target landscape of clinical kinase drugs” (Science, 2017) are Kd values, retold here.

In test [1] the target is Adenylate kinase 2, mitochondrial (Homo sapiens, UniProt P54819).
Test [2] has as its target T1, Serine/threonine-protein kinase A-Raf (Homo sapiens, UniProt P10398).
T1 sequence (P10398 whole entry): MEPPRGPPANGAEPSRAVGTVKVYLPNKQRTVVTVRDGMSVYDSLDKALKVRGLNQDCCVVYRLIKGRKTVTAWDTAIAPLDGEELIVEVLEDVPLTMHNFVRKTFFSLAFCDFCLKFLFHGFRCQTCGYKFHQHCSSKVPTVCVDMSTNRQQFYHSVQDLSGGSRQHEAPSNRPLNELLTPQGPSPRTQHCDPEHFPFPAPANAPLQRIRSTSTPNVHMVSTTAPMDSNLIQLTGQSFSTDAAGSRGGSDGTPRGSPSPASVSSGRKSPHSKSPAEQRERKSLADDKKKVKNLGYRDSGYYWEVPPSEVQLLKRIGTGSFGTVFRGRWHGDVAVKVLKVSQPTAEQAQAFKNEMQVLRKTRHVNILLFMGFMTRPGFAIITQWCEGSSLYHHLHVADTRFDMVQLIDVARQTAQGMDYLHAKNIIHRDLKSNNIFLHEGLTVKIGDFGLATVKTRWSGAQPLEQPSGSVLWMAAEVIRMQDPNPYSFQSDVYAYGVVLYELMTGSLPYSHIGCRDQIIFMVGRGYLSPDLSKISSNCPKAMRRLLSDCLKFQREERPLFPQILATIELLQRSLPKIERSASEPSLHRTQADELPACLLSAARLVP

Test [3] addresses T2, Cysteine--tRNA ligase, cytoplasmic (Homo sapiens, UniProt P49589).
T2 sequence (P49589 whole entry): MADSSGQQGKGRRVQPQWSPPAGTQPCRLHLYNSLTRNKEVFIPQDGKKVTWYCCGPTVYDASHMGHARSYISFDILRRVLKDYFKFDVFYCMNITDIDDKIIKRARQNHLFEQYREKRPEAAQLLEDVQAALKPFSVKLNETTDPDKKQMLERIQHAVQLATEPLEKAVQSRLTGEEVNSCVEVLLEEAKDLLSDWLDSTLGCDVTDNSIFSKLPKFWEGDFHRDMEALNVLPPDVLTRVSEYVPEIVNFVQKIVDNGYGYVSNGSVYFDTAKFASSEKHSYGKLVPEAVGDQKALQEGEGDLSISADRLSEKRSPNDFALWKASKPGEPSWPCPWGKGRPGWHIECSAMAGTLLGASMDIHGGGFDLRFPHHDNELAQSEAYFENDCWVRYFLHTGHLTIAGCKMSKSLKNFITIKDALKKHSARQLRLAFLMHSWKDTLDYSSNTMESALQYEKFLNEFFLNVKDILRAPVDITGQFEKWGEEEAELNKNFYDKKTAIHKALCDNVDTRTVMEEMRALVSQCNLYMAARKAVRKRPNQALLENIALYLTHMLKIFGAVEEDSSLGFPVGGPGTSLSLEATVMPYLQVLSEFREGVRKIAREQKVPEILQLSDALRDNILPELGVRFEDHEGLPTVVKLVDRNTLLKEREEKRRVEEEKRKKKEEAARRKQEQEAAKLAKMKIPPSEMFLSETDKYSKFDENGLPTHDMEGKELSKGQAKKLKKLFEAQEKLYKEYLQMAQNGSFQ

Another test concerns the target Ephrin type-A receptor 4 (Homo sapiens, UniProt P54764).
The target of test [4] is T3, Serine/threonine-protein kinase ICK (Homo sapiens, UniProt Q9UPZ9).
T3 sequence (Q9UPZ9 whole entry): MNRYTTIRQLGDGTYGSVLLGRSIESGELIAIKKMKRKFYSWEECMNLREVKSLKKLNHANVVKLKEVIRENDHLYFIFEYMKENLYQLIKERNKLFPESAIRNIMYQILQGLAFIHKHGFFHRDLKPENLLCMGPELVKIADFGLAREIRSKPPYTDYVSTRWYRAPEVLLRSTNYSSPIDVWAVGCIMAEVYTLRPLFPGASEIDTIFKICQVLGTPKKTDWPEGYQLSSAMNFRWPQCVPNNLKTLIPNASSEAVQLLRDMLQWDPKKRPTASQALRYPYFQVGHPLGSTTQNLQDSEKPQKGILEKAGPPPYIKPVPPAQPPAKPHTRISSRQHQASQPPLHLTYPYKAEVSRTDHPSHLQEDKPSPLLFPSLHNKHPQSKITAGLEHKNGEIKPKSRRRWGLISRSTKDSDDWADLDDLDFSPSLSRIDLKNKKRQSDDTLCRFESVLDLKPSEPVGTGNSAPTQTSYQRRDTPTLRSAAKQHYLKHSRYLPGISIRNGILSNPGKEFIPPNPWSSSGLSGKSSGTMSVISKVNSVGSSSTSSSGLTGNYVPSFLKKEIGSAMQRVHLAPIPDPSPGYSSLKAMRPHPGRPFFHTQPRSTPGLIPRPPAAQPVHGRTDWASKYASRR

The target in test [5] is Mitogen-activated protein kinase kinase kinase kinase 5 (Homo sapiens, UniProt Q9Y4K4).
Test [6] addresses T4, Serine/threonine-protein kinase TBK1 (Homo sapiens, UniProt Q9UHD2).
T4 sequence (Q9UHD2 whole entry): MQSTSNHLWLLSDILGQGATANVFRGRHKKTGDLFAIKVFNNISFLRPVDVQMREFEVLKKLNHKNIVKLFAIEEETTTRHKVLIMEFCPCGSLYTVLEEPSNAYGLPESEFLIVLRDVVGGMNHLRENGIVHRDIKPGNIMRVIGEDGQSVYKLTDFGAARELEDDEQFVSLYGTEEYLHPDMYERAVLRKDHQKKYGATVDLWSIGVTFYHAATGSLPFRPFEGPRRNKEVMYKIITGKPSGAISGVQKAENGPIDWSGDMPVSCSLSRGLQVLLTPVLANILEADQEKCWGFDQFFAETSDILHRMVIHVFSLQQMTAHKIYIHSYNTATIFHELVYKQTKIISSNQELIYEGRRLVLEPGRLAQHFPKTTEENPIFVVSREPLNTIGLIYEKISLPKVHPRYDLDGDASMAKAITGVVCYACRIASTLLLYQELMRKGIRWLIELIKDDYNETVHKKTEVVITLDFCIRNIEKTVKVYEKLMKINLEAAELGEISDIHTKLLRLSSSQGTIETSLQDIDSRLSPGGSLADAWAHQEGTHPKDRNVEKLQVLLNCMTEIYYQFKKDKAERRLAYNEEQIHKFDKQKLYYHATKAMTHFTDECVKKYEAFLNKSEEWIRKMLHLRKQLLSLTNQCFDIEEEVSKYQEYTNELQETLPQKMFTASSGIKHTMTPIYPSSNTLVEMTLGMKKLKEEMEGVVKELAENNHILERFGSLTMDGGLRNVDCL

Test [7] has as its target TRAF2 and NCK-interacting protein kinase (Homo sapiens, UniProt Q9UKE5).

The source made the active and inactive calls. Rule as the data show it, for most assays here: actives have a measured Kd and inactives only a lower limit.
Also: in the data inactive means no Kd found up to 30 µM.

Chain of TRAF2 and NCK-interacting protein kinase (Q9UKE5 whole entry): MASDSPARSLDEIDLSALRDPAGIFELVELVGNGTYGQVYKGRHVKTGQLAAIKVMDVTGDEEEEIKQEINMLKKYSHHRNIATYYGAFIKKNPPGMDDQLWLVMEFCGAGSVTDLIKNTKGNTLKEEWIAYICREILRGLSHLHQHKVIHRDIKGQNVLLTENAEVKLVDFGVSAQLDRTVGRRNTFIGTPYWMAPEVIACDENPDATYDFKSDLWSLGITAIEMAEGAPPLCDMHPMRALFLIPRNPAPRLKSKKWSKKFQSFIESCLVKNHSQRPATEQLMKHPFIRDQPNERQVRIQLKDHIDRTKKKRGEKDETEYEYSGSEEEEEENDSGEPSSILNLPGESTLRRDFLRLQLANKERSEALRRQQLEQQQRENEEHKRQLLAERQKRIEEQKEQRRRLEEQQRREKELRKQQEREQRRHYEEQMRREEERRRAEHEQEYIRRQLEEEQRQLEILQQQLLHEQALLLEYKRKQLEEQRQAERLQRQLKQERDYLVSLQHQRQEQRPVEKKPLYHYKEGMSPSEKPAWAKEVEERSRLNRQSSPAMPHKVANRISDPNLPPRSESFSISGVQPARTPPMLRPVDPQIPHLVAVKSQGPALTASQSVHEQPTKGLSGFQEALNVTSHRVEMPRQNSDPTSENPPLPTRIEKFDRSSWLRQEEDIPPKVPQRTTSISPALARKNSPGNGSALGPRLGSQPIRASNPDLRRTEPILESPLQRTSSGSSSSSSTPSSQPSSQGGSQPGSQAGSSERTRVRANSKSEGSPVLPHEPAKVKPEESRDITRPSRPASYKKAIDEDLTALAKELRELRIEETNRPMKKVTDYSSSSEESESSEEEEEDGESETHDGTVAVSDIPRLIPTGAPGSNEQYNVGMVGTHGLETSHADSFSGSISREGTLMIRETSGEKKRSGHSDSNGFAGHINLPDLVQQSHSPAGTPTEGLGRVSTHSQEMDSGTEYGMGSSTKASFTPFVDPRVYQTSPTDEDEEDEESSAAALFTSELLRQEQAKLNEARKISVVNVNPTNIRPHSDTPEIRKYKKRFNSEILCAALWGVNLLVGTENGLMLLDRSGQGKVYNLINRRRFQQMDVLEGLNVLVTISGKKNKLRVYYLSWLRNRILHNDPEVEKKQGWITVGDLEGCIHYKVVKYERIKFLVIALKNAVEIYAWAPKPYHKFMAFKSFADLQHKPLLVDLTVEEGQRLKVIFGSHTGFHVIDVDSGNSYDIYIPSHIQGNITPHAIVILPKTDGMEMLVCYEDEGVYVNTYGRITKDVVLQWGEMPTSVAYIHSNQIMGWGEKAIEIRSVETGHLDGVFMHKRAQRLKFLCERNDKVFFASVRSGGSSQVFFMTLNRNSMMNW
Chain of Ephrin type-A receptor 4 (P54764 whole entry): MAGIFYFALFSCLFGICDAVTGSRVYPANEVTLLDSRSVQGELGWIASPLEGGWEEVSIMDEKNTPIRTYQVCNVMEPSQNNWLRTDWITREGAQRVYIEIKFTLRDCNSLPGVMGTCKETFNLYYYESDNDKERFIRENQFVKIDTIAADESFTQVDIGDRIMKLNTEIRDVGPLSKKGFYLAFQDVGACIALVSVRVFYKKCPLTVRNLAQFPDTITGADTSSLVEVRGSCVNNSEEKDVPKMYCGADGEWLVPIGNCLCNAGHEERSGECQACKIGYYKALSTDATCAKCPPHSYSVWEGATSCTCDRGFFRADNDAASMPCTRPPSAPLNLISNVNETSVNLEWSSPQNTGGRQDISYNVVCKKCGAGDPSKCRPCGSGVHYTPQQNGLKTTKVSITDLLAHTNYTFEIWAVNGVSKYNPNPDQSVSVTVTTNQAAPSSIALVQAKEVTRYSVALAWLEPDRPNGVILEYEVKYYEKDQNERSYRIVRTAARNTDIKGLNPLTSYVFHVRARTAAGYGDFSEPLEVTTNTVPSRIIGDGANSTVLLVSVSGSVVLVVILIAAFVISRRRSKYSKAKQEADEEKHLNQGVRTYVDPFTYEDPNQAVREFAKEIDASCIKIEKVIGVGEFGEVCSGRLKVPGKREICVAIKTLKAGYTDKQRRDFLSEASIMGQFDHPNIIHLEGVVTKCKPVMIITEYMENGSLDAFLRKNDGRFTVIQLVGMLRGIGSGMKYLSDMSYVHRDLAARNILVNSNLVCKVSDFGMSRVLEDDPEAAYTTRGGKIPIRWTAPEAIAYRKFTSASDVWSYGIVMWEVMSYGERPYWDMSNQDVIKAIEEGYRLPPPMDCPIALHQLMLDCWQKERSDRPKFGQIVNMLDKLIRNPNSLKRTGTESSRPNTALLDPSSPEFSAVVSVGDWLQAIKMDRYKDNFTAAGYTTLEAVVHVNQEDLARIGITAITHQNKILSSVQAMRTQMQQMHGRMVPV
Chain of Mitogen-activated protein kinase kinase kinase kinase 5 (Q9Y4K4 whole entry): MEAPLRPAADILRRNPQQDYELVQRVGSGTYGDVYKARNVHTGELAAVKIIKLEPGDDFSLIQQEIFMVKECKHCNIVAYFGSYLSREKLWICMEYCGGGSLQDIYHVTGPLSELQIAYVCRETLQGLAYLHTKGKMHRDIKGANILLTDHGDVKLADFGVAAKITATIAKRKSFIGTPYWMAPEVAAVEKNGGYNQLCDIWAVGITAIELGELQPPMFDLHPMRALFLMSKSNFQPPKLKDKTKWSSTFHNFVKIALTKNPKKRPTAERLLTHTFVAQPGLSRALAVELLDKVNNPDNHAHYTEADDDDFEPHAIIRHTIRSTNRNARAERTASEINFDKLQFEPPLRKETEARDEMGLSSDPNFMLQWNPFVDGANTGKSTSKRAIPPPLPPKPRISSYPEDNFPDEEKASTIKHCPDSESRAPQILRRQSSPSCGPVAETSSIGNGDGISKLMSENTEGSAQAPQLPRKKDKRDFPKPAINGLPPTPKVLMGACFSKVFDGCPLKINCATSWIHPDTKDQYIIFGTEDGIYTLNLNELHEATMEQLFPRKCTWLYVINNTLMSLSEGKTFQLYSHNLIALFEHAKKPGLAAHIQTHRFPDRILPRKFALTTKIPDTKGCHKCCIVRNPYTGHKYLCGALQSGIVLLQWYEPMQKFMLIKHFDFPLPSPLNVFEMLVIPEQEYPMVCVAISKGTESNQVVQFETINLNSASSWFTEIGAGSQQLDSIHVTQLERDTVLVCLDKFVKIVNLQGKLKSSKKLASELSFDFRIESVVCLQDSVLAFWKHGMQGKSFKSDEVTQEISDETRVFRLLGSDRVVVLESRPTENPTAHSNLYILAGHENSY

Broadly, the Kd is the constant that tells how readily two partners part at equilibrium. With `COc1cccc2cc(-c3nc([C@H]4CC[C@H](C(=O)O)CC4)n4ncnc(N)c34)[nH]c12` [OSI-027], the Kd (in test [1]; in test [2]; in test [3]; on Ephrin type-A receptor 4; in test [4]; in test [5]) was > 30 µM (inactive) each time. Also, the Kd in test [6] and in test [7] was > 30 µM (inactive) each time.
As for `O=C(O)c1ccc2c(c1)nc(Nc1cccc(Cl)c1)c1ccncc12` [SILMITASERTIB], the Kd was > 30 µM (inactive) in test [1]; > 30 µM (inactive) in test [2]; > 30 µM (inactive) in test [3]; > 30 µM (inactive) on Ephrin type-A receptor 4; 0.884 µM (active) in test [4]; > 30 µM (inactive) in test [5]. Also, the Kd in test [6] and in test [7] was > 30 µM (inactive) in each case.
For `c1cc(OCCN2CCCCC2)cc(-c2n[nH]c3ccc(-c4nc[nH]n4)cc23)c1` [CC-401], the Kd (in test [1]; in test [2]; in test [3]; at Ephrin type-A receptor 4; in test [4]; in test [5]) was > 30 µM (inactive) each time. The Kd in test [6] was > 30 µM (inactive); in test [7] it was 2.34 µM (active).
Turning to `COc1cc2ncnc(Nc3ccc(O)cc3)c2cc1OC` [WHI-P131], the Kd (in test [1]; in test [2]; in test [3]; at Ephrin type-A receptor 4; in test [4]; in test [5]) was > 30 µM (inactive) throughout. The Kd in test [6] and in test [7] was > 30 µM (inactive) throughout.
Turning to `O=C(Nc1ccc(OC(F)(F)F)cc1)c1sccc1NCc1ccnc2ccccc12` [OSI-930], the Kd (in test [1]; in test [2]; in test [3]; on Ephrin type-A receptor 4; in test [4]; in test [5]) was > 30 µM (inactive) each time. The Kd in test [6] and in test [7] was > 30 µM (inactive) throughout.
As for `CNC(=O)c1ccc(Nc2ncc(C(F)(F)F)c(NCc3nccnc3N(C)S(C)(=O)=O)n2)cc1` [DEFACTINIB], the Kd (in test [1]; in test [2]; in test [3]; on Ephrin type-A receptor 4; in test [4]; in test [5]) was > 30 µM (inactive) throughout. The Kd in test [6] and in test [7] was > 30 µM (inactive) throughout.
Take `O=S(=O)(c1cccc2c(O)nccc12)N1CCCNCC1` [HYDROXYFASUDIL]: the Kd (in test [1]; in test [2]; in test [3]; at Ephrin type-A receptor 4; in test [4]; in test [5]) was > 30 µM (inactive) in each case. Also, the Kd in test [6] and in test [7] was > 30 µM (inactive) in each case.
For `C[C@@H]1COC(Nc2ccc3ncnc(Nc4ccc(OCc5nccs5)c(Cl)c4)c3c2)=N1` [VARLITINIB], the Kd (in test [1]; in test [2]; in test [3]; at Ephrin type-A receptor 4; in test [4]; in test [5]) was > 30 µM (inactive) each time. Further, the Kd in test [6] and in test [7] was > 30 µM (inactive) each time.
Consider `NC(=O)c1ccc(N(C(N)=O)c2c(F)cccc2F)nc1-c1ccc(F)cc1F` [VX-702], for which the Kd (in test [1]; in test [2]; in test [3]; on Ephrin type-A receptor 4; in test [4]; in test [5]) was > 30 µM (inactive) each time. Also, the Kd in test [6] and in test [7] was > 30 µM (inactive) each time.
In the case of `CCN(CCCOc1ccc2c(Nc3cc(CC(=O)Nc4cccc(F)c4)n[nH]3)ncnc2c1)CCOP(=O)(O)O` [BARASERTIB], the Kd in test [1] is > 30 µM (inactive); in test [3], > 30 µM (inactive); at Ephrin type-A receptor 4, > 30 µM (inactive); in test [4], > 30 µM (inactive); in test [5], 2.24 µM (active); in test [7] it was > 30 µM (inactive).
On to `CCOc1ccn(-c2ccc(F)cc2)c(=O)c1C(=O)Nc1ccc(Oc2ccnc(N)c2Cl)c(F)c1` [BMS-777607], for which the Kd (in test [1]; in test [3]; on Ephrin type-A receptor 4; in test [4]; in test [5]; in test [6]) was > 30 µM (inactive) each time. In test [7], the Kd was > 30 µM (inactive).
`CC(C)CC(=O)Nc1[nH]nc2c1CN(C(=O)C1CCN(C)CC1)C2(C)C` [PHA-793887]: the Kd (in test [1]; in test [2]; in test [3]; at Ephrin type-A receptor 4; in test [4]; in test [5]) was > 30 µM (inactive) throughout. For the same molecule, the Kd in test [6] was > 30 µM (inactive).
As to `COc1ccc(-c2ccc3ncc4c(c3c2)n(-c2ccc(N3CCNCC3)c(C(F)(F)F)c2)c(=O)n4C)cn1` [BGT-226 FREE BASE], the Kd (in test [1]; in test [2]; in test [3]; at Ephrin type-A receptor 4; in test [4]; in test [5]) was > 30 µM (inactive) each time. Further, in test [6], the Kd is > 30 µM (inactive).
